The source of these data is the supplement of paper PMC4862054.

Values joined by “and” are separate entries in the source; they are usually repeats but may differ in a detail not shown here. Equal values may be shown once.

What all share (assay): normalised viability (% of control), CellTiter-Blue; higher = more viable cells (about 100 = DMSO control)
Holding throughout (settings): incubation time: 72 h

Test [1] deals with CAL-148. Here is the method:
(§1)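 DSRT, CellTiter-Blue viability, 72 h incubation. Signal is normalised to DMSO and benzethonium chloride controls. Value is the normalised response at dose 6.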

Test [2] has as its system CAL-51. The procedure:
as §1

Test [3] has as its system CAL-85-1. The procedure: as §1
Test [4] has as its system DU-4475. The procedure: as §1
Test [5] relates to HDQ-P1. The procedure: as §1
Test [6] relates to MDA-MB-453. The procedure:
as §1

Test [7] deals with CAL-148. Here is the method:
(§2)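 DSRT, CellTiter-Blue viability, 72 h incubation. Signal is normalised to DMSO and benzethonium chloride controls. Value is the normalised response at dose 7.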
This is another data set of the same source.

Test [8] has as its system CAL-51. Here is the method: as §2
The source holds these as a separate data set.

In test [9] the test system is CAL-85-1. Here is the method: as §2
This is another data set of the same source.

The test system of test [10] is DU-4475. Here is the method:
as §2
The source holds these as a separate data set.

For test [11], the system named is HDQ-P1. Here is the method: as §2
The source holds these as a separate data set.

For test [12], the system named is MDA-MB-453. Here is the method: as §2
The source holds these as a separate data set.

In test [13] the test system is CAL-148. Here is the method: (§3)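 DSRT, CellTiter-Blue viability, 72 h incubation. Signal is normalised to DMSO and benzethonium chloride controls. Value is the normalised response at dose 8.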
The source holds these as a separate data set.

Test [14] has as its system CAL-51. Here is the method:
as §3
This is another data set of the same source.

Test [15] relates to CAL-85-1. Here is the method:
as §3
This is another data set of the same source.

Test [16] relates to DU-4475. Here is the method:
as §3
This is another data set of the same source.

Test [17] has as its system MDA-MB-453. The procedure: as §3
This is another data set of the same source.

Regarding `Cc1cccc(-c2nn3c(c2-c2ccnc4ccc(C(N)=O)cc24)CCC3)n1` (30 nM), the normalised viability in [1] was found to be 89.8%; in test [2], 103%; in test [3] it was 96.7%; in test [4], 95.8%; in test [5], 100%; in [6], 93.3%.

In the case of `Cn1cc(CNCC2CCN(c3ncc(C(=O)NO)cn3)CC2)c2ccccc21` (30 nM), the normalised viability in test [1] was 24.2%; in test [2], 70.1%; in test [3], 38.9%; in test [4], 29.3%; in test [5], 37.5%; in [6], 4.37%.

Regarding `Cc1cccc(-c2nn3c(c2-c2ccnc4ccc(C(N)=O)cc24)CCC3)n1` (100 nM), the normalised viability came out at 104% in [7]; 97.6% in test [8]; 89.5% in test [9]; 108% in test [10]; 120% in test [11]; 93.4% in test [12].

Regarding `Cn1cc(CNCC2CCN(c3ncc(C(=O)NO)cn3)CC2)c2ccccc21` (100 nM), the normalised viability stood at 3.75% in [7]; 36.7% in [8]; 16.6% in [9]; 12.3% in test [10]; 33.5% in [11]; 2.32% in [12].

As to `COc1ccc(-c2cc3c(C)nc(N)nc3n([C@H]3CC[C@H](OCCO)CC3)c2=O)cn1` (300 nM), the normalised viability in [1] worked out at 42.2%; in test [2], 30.1%; in [3], 49.9%; in test [4], 65.8%; in test [5] it was 18%; in [6], 16.9%.

Turning to `O=C(NC[C@H](O)CO)c1ccncc1Nc1ccc(I)cc1F` (300 nM), the normalised viability was determined as 82.7% in [1]; 85.9% in test [2]; 77.3% in test [3]; 0.69% in test [4]; 57.6% in test [5]; 98% in test [6].

For the molecule `O=C(NC[C@H](O)CO)c1ccncc1Nc1ccc(I)cc1F` (1000 nM), the normalised viability in test [7] came to 77.3%; in [8], 78.2%; in [9], 65.3%; in test [10] it was 0.41%; in test [11] it was 58.5%; in [12], 77.4%.

In the case of `Nc1nc(=O)c2c([nH]1)NCC(CNc1ccc(C(=O)N[C@@H](CCC(=O)O)C(=O)O)cc1)N2C=O` (mixture of isomers) [Folinic acid] (29.7 nM), the normalised viability in [1] is 86.6%; in test [2], 97.8%; in test [3] it was 100%; in [4], 115%; in test [5], 140%; in test [6], 99.8%.

Turning to `Nc1nc(=O)c2c([nH]1)NCC(CNc1ccc(C(=O)N[C@@H](CCC(=O)O)C(=O)O)cc1)N2C=O` (mixture of isomers) [Folinic acid] (99 nM), the normalised viability in [7] was 97.8%; in test [8] it was 93%; in test [9], 87.2%; in [10] it was 104%; in test [11] it was 134%; in test [12], 103%.

Take `O=C(Nc1c[nH]nc1-c1nc2ccc(CN3CCOCC3)cc2[nH]1)NC1CC1` [AT9283] (300 nM): the normalised viability was 61.9% in test [1]; 59.1% in test [2]; 87.7% in test [3]; 28.4% in [4]; 61.1% in [5]; 58.1% in test [6].

`COc1cc(CCc2cc(NC(=O)c3ccc(N4CC(C)NC(C)C4)cc3)n[nH]2)cc(OC)c1` (centres undefined) [AZD4547] (30 nM): the normalised viability stood at 105% in [1]; 107% in test [2]; 89.7% in [3]; 92.7% in test [4]; 103% in test [5]; 109% in test [6].

`CCC/C=C/C=C/C(=O)O[C@H]1/C(=C/C(=O)OC)C[C@H]2C[C@H]([C@@H](C)O)OC(=O)C[C@H](O)C[C@@H]3C[C@H](OC(C)=O)C(C)(C)[C@](O)(C[C@@H]4C/C(=C/C(=O)OC)C[C@H](/C=C/C(C)(C)[C@]1(O)O2)O4)O3` [Bryostatin 1] (3 nM): the normalised viability in test [1] is 85.5%; in [2], 98.7%; in [3] it was 110%; in test [4] it was 88.7%; in test [5], 78.6%; in test [6], 85.9%.

As to `CO[C@@H](C(=O)N1Cc2[nH]nc(NC(=O)c3ccc(N4CCN(C)CC4)cc3)c2C1)c1ccccc1` [Danusertib] (300 nM), the normalised viability in test [1] is 54.6%; in test [2] it was 60.3%; in test [3], 61.9%; in test [4] it was 57%; in test [5] it was 50.8%; in test [6] it was 60.2%.

Take `Cc1nc(Nc2ncc(C(=O)Nc3c(C)cccc3Cl)s2)cc(N2CCN(CCO)CC2)n1` [Dasatinib] (30 nM): the normalised viability is 110% and 90.6% in [1]; 59.8% and 68.3% in test [2]; 83.9% and 86% in test [3]; 105% and 87.6% in [4]; 24.4% and 18.2% in [5]; 102% and 101% in test [6].

As to `O=S(=O)(c1cccc2cnccc12)N1CCCNCC1` [Fasudil] (300 nM), the normalised viability in test [1] turned out to be 83.7%; in test [2] it was 107%; in test [3] it was 97.2%; in test [4], 117%; in test [5], 90.9%; in test [6], 106%.

For `O=S(=O)(c1cccc2cnccc12)N1CCCNCC1` [Fasudil] (1000 nM), the normalised viability was 90.7% in [7]; 115% in [8]; 101% in [9]; 120% in test [10]; 111% in test [11]; 101% in [12].

On to `CS(=O)(=O)N1CCN(Cc2cc3nc(-c4cccc5[nH]ncc45)nc(N4CCOCC4)c3s2)CC1` [GDC-0941] (300 nM), for which the normalised viability in test [1] worked out at 83.5%; in [2] it was 61%; in test [3], 73.2%; in [4] it was 83.2%; in test [5] it was 37.6%; in test [6], 43.4%.

For the molecule `CS(=O)(=O)N1CCN(Cc2cc3nc(-c4cccc5[nH]ncc45)nc(N4CCOCC4)c3s2)CC1` [GDC-0941] (1000 nM), the normalised viability in test [7] was 54%; in test [8] it was 39.5%; in test [9] it was 58.4%; in [10] it was 105%; in test [11], 25%; in test [12], 12%.

Take `COc1nc(N)nc2c1ncn2[C@@H]1O[C@H](CO)[C@@H](O)[C@@H]1O` [Nelarabine] (300 nM): the normalised viability in [1] is 88.9% and 89.2%; in test [2] it was 101% and 97.9%; in test [3] it was 100% and 97.8%; in [4] it was 113% and 116%; in test [6], 102% and 99.1%.

On to `c1cc(CN2CCCNCCNCCCNCC2)ccc1CN1CCCNCCNCCCNCC1` [Plerixafor] (250 nM), for which the normalised viability is 84.4% in test [7]; 105% in test [8]; 94.3% in test [9]; 97.2% in [10]; 121% in test [11]; 104% in test [12].

Turning to `CNC(=O)c1cc(Oc2ccc(NC(=O)Nc3ccc(Cl)c(C(F)(F)F)c3)cc2)ccn1` [Sorafenib] (300 nM), the normalised viability was 93.4% and 99% in test [13]; 109% and 102% in test [14]; 83.4% and 99.7% in test [15]; 104% and 99.8% in test [16]; 96.8% and 108% in test [17].
